Measurements as given in patent US20160193216A1 (Nimbus Iris, Inc., priority 2012, published 2016).
pIC50: −log10 of the molar value.

Each molecule was assayed against T1, IRAK4 (Homo sapiens, UniProt Q9NWZ3) (assay: IRAK-4 activity inhibition assay (Caliper)). Conditions: 37 μM ATP, 3.5 nM IRAK4.
T1 sequence (Q9NWZ3 1-460): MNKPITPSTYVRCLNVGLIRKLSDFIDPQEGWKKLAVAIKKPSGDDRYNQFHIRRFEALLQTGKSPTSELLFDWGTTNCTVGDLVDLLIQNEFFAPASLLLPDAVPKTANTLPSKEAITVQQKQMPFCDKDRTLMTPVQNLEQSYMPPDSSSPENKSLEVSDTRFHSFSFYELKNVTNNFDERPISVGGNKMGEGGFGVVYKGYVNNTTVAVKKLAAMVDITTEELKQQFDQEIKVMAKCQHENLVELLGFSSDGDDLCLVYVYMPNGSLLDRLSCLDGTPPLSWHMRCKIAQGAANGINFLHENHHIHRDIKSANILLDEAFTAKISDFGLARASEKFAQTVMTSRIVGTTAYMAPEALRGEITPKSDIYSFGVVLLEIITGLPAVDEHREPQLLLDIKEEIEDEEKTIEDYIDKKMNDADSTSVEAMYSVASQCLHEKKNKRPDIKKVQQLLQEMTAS
Type: biochemical

Structure (SMILES) | pIC50
C=C[C@H](O)C[C@H]1CCc2sc3ncnc(O[C@H]4CC[C@](CC)(N(C)C)CC4)c3c21 [Compound I-124, (R)-1-((R)-4-(((1r,4R)-4-(dimethylamino)-4-ethylcyclohexyl)oxy)-6,7-dihydro-5H-cyclopenta[4,5]thieno[2,3-d]pyrimidin-5-yl)but-3-en-2-ol] | 4.70 to 5.30
CN(CC(=O)N1CCCC1)[C@H]1CC[C@H](Nc2ncnc3sc4c(c23)[C@@H](CCC(N)=O)CC4)CC1 [Compound I-127, 3-((S)-4-(((1r,4S)-4-(methyl(2-oxo-2-(pyrrolidin-1-yl)ethyl)amino)cyclohexyl)amino)-6,7-dihydro-5H-cyclopenta[4,5]thieno[2,3-d]pyrimidin-5-yl)propanamide] | 4.70 to 5.30
NC(=O)C[C@H]1CCc2sc3ncnc(OC4CCC(NC5COC5)CC4)c3c21 (stereo partly drawn) [Compound I-132, 2-[(3R)-12-([4-[(oxetan-3-yl)amino]cyclohexyl]oxy)-7-thia-9,11-diazatricyclo[6.4.0.0[2,6]]dodeca-1(8),2(6),9,11-tetraen-3-yl]acetamide] | > 5.30
COCCN[C@H]1CC[C@H](Oc2ncnc3sc4c(c23)[C@@H](CC(N)=O)CC4)CC1 [Compound I-133, 2-[(3R)-12-([4-[(2-methoxyethyl)amino]cyclohexyl]oxy)-7-thia-9,11-diazatricyclo[6.4.0.0[2,6]]dodeca-1(12),2(6),8,10-tetraen-3-yl]acetamide] | > 5.30
COCCN(CCOC)[C@H]1CC[C@H](Oc2ncnc3sc4c(c23)[C@@H](CC(N)=O)CC4)CC1 [Compound I-134, 2-[(3R)-12-([4-[bis(2-methoxyethyl)amino]cyclohexyl]oxy)-7-thia-9,11-diazatricyclo[6.4.0.0[2,6]]dodeca-1(12),2(6),8,10-tetraen-3-yl]acetamide] | > 5.30
NC(=O)[C@H](O)C[C@H]1CCc2sc3ncnc(O[C@H]4CC[C@H](N)CC4)c3c21 [Compound I-138, (R)-3-((R)-4-(((1 r,4R)-4-aminocyclohexyl)oxy)-6,7-dihydro-5H-cyclopenta[4,5]thieno[2,3-d]pyrimidin-5-yl)-2-hydroxypropanamide] | > 5.30
CCN[C@H]1CC[C@H](Oc2ncnc3sc4c(c23)[C@@H](C[C@@H](O)C(N)=O)CC4)CC1 [Compound I-139, (2R)-3-[(3R)-12-[[4-(ethylamino)cyclohexyl]oxy]-7-thia-9,11-diazatricyclo[6.4.0.0[2,6]]dodeca-1(8),2(6),9,11-tetraen-3-yl]-2-hydroxypropanamide] | > 5.30
CN[C@H]1CC[C@H](Oc2ncnc3sc4c(c23)[C@@H](C[C@@H](O)C(N)=O)CC4)CC1 [Compound I-140, (2R)-2-hydroxy-3-[(3R)-12-[[4-(methylamino)cyclohexyl]oxy]-7-thia-9,11-diazatricyclo[6.4.0.0[2,6]]dodeca-1(8),2(6),9,11-tetraen-3-yl]propanamide] | > 5.30
C[C@@H](O)CNC(=O)C[C@H]1CCc2sc3ncnc(O[C@H]4CC[C@H](N(C)C)CC4)c3c21 [Compound I-141, 2-((R)-4-(((1r,4R)-4-(dimethylamino)cyclohexyl)oxy)-6,7-dihydro-5H-cyclopenta[4,5]thieno[2,3-d]pyrimidin-5-yl)-N—((R)-2-hydroxypropyl)acetamide] | 4.70 to 5.30
NC(=O)C[C@H]1CCc2sc3ncnc(OCC4CCNCC4)c3c21 [Compound I-143, 2-[(3R)-12-(piperidin-4-ylmethoxy)-7-thia-9,11-diazatricyclo[6.4.0.0[2,6]]dodeca-1(12),2(6),8,10-tetraen-3-yl]acetamide] | 4.70 to 5.30
OCC[C@@H]1CCc2sc3ncnc(O[C@H]4CC[C@H](N5CCOCC5)CC4)c3c2C1 [Compound I-145, 2-((R)-4-(((1r,4R)-4-morpholinocyclohexyl)oxy)-5,6,7,8-tetrahydrobenzo[4,5]thieno[2,3-d]pyrimidin-6-yl)ethanol] | > 5.30
CNC1CCC(Oc2ncnc3sc4c(c23)[C@@H](C[C@H](N)C(N)=O)CC4)CC1 (stereo partly drawn) [Compound I-146, (2S)-2-amino-3-[(3R)-12-[[4-(methylamino)cyclohexyl]oxy]-7-thia-9,11-diazatricyclo[6.4.0.0[2,6]]dodeca-1(8),2(6),9,11-tetraen-3-yl]propanamide] | > 5.30
CC[C@H](C[C@H]1CCc2sc3ncnc(N[C@H]4CC[C@H](N(C)C)CC4)c3c21)OC [Compound I-147, (1r,4R)-N1-((R)-5-((R)-2-methoxybutyl)-6,7-dihydro-5H-cyclopenta[4,5]thieno[2,3-d]pyrimidin-4-yl)-N4,N4-dimethylcyclohexane-1,4-diamine] | > 5.30
CC[C@@H](C[C@H]1CCc2sc3ncnc(N[C@H]4CC[C@H](N(C)C)CC4)c3c21)OC [Compound I-148, (1r,4R)-N1-((R)-5-((S)-2-methoxybutyl)-6,7-dihydro-5H-cyclopenta[4,5]thieno[2,3-d]pyrimidin-4-yl)-N4,N4-dimethylcyclohexane-1,4-diamine] | > 5.30
NC(=O)C[C@H]1CCc2sc3ncnc(O[C@H]4CC[C@H](N)CC4)c3c21 [Compound I-150, 2-[(3R)-12-[(4-aminocyclohexyl)oxy]-7-thia-9,11-diazatricyclo[6.4.0.0[2,6]]dodeca-1(12),2(6),8,10-tetraen-3-yl]acetamide] | > 5.30
NC(=O)C[C@H]1CCc2sc3ncnc(O[C@H]4CC[C@H](N5CC6(COC6)C5)CC4)c3c21 [Compound I-152, 2-[(3R)-12-[(4-[2-oxa-6-azaspiro[3.3]heptan-6-yl]cyclohexyl)oxy]-7-thia-9,11-diazatricyclo[6.4.0.0[2,6]]dodeca-1(8),2(6),9,11-tetraen-3-yl]acetamide] | > 5.30
NC(=O)CC[C@H]1CCCc2sc3ncnc(O[C@H]4CC[C@H](N)CC4)c3c21 [Compound I-153, 3-((R)-4-(((1r,4R)-4-aminocyclohexyl)oxy)-5,6,7,8-tetrahydrobenzo[4,5]thieno[2,3-d]pyrimidin-5-yl)propanamide] | > 5.30

The next lines start with the values.

pIC50 | Structure (SMILES)
> 5.30 | CN(CC(=O)N1CCCC1)[C@H]1CC[C@H](Nc2ncnc3sc4c(c23)[C@@H](CCO)CC4)CC1 [Compound I-116, 2-(((1R,4r)-4-(((R)-5-(2-hydroxyethyl)-6,7-dihydro-5H-cyclopenta[4,5]thieno[2,3-d]pyrimidin-4-yl)amino)cyclohexyl)(methyl)amino)-1-(pyrrolidin-1-yl)ethanone]
> 5.30 | CC[C@H](C[C@H]1CCc2sc3ncnc(O[C@H]4CC[C@H](N(C)C)CC4)c3c21)OC [Compound I-117, 4-[[(3R)-3-[(2R)-2-methoxybutyl]-7-thia-9,11-diazatricyclo[6.4.0.0[2,6]]dodeca-1(8),2(6),9,11-tetraen-12-yl]oxy]-N,N-dimethylcyclohexan-1-amine]
> 5.30 | CC[C@@H](C[C@H]1CCc2sc3ncnc(O[C@H]4CC[C@H](N(C)C)CC4)c3c21)OC [Compound I-119, (1R,4r)-4-(((R)-5-((S)-2-methoxybutyl)-6,7-dihydro-5H-cyclopenta[4,5]thieno[2,3-d]pyrimidin-4-yl)oxy)-N,N-dimethylcyclohexanamine]
> 5.30 | NC(=O)C[C@H]1CCc2sc3ncnc(O[C@H]4CC[C@H](N5CCN(Cc6ccccc6)CC5)CC4)c3c21 [Compound I-122, 2-[(3R)-12-[[4-(4-benzylpiperazin-1-yl)cyclohexyl]oxy]-7-thia-9,11-diazatricyclo[6.4.0.0[2,6]]dodeca-1(12),2(6),8,10-tetraen-3-yl]acetamide]
> 5.30 | CN(CC(=O)N1CCCC1)[C@H]1CC[C@H](Nc2ncnc3sc4c(c23)[C@@H](CC(N)=O)CC4)CC1 [Compound I-123, 2-[(3R)-12-[(4-[methyl[2-oxo-2-(pyrrolidin-1-yl)ethyl]amino]cyclohexyl)amino]-7-thia-9,11-diazatricyclo[6.4.0.0[2,6]]dodeca-1(8),2(6),9,11-tetraen-3-yl]acetamide]
> 5.30 | CN(CCF)[C@H]1CC[C@H](Oc2ncnc3sc4c(c23)[C@@H](CC(N)=O)CC4)CC1 [Compound I-125, 2-((R)-4-(((1r,4R)-4-((2-fluoroethyl)(methyl)amino)cyclohexyl)oxy)-6,7-dihydro-5H-cyclopenta[4,5]thieno[2,3-d]pyrimidin-5-yl)acetamide]
> 5.30 | C=C[C@@H](O)C[C@H]1CCc2sc3ncnc(O[C@H]4CC[C@@](N)(CC)CC4)c3c21 [Compound I-126, (2S)-1-[(3R)-12-[(4-amino-4-ethylcyclohexyl)oxy]-7-thia-9,11-diazatricyclo[6.4.0.0[2,6]]dodeca-1(8),2(6),9,11-tetraen-3-yl]but-3-en-2-ol]
> 5.30 | CN(C1COC1)[C@H]1CC[C@H](Oc2ncnc3sc4c(c23)[C@@H](CC(N)=O)CC4)CC1 [Compound I-129, 2-((R)-4-(((1r,4R)-4-(methyl(oxetan-3-yl)amino)cyclohexyl)oxy)-6,7-dihydro-5H-cyclopenta[4,5]thieno[2,3-d]pyrimidin-5-yl)acetamide]
> 5.30 | COCCN(C)[C@H]1CC[C@H](Oc2ncnc3sc4c(c23)[C@@H](CC(N)=O)CC4)CC1 [Compound I-130, 2-((R)-4-(((1r,4R)-4-((2-methoxyethyl)(methyl)amino)cyclohexyl)oxy)-6,7-dihydro-5H-cyclopenta[4,5]thieno[2,3-d]pyrimidin-5-yl)acetamide]
> 5.30 | NC(=O)C[C@H]1CCc2sc3ncnc(O[C@H]4CC[C@H](N5CCNCC5)CC4)c3c21 [Compound I-131, 2-[(3R)-12-[[4-(piperazin-1-yl)cyclohexyl]oxy]-7-thia-9,11-diazatricyclo[6.4.0.0[2,6]]dodeca-1(12),2(6),8,10-tetraen-3-yl]acetamide]
